{"source": "patent US20080118980A1", "about": "“Estrogen Enhancing Differentiation of Human Mesenchymal Stromal Cells and Adipose-derived Stromal Cells” (The Board of Trustees of the University of Illinois,, priority 2006, published 2008)", "system": "human bone marrow mesenchymal stem cells (MSCs)", "assay": "Proliferation of human bone marrow MSCs in basic medium with E2 or E3 (MTS, Example 3)", "format": "cell-based", "method": "This study investigates the mitogenic effects of estrogen receptor ligands on human bone marrow MSCs that is not contacted with osteogenic or adipogenic medium. Purified human bone marrow mesenchymal stem cells (MSCs) were purchased commercially. MSCs were respectively exposed to basic medium (DMEM+10% FBS+1% antibiotics), and basic medium supplement with 10^−6 and 10^−9 M 17-β estradiol (E2) and estriol (E3) for approximately one week. Then, various cells were plated into 96-well plates in 500 cells/well and continued to be exposed to the media. After 4 days, cell densities were measured by MTS methods and compared to initial densities. FIG. 8 illustrates the increase of the number of MSCs after being treated with basic medium and basic medium supplemented with E2 or E3.", "data": [{"smiles": "C[C@]12CC[C@@H]3c4ccc(O)cc4CC[C@H]3[C@@H]1C[C@@H](O)[C@@H]2O", "note": "[E3, estriol]", "values": [{"measurement": "cell proliferation (MTS assay and cell counting)", "setting": "10^−6 and 10^−9 M, about one week then 4 days in 96-well plates, FIG. 8", "result": "greatly increased"}, {"measurement": "differentiation capabilities (adipogenic and osteogenic) of modulated MSCs", "setting": "vs controls", "result": "maintain their differentiation capabilities"}]}]}
